In patent US20220098203A1 (priority 2018, published 2022) one finds IC50 data, which are given here for 18 compounds.

Where two headings read alike, the source gives them in different places.

One test relates to HCT116 MTAP+/+. Kind of test: Inhibition of cellular proliferation (Cell Titer Glo), HCT116 MTAP+/+. The following applies: Homo sapiens, HCT-116, 96 h, Table 5a, 4 days, read-out: 4 Day Relative Growth Inhibition (MTAP +/+). It is filed as cell-based. In a few lines: (§1)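 Isogenic HCT116 MTAP+/+ and MTAP−/− cells were plated, treated with MAT2A inhibitor after 24 h, and incubated 4 days at 37 °C. Proliferation was read by CellTiter-Glo ATP luminescence, blank-subtracted and normalized to 0.2% DMSO control.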

A further test has as its target T1, MAT2A homodimer (Homo sapiens, UniProt P31153).
T1 construct: inferred from the Ni sepharose purification and imidazole elution; made in house; host or cells: SF9 insect cells, recombinant baculovirus (Bac to Bac, pFASTBAC1)
Kind of test: MAT2A biochemical assay (liberated phosphate, PiColorLock Gold). The following applies: Table 5a; MAT2A biochemical assay; read-out: Enzyme Inhibition. In a few lines: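 Baculovirus/Sf9-expressed, Ni-purified MAT2A homodimer preincubated with compound 60 min at 25 °C, then reacted 60 min at 25 °C with substrate mix of 500 μM ATP and 400 μM L-methionine, pH 7.0 (mix, not final levels). Phosphate released with SAM measured by PiColorLock Gold against phosphate standard curve.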

The next test relates to HCT116 MTAP-/-. Kind of test: Inhibition of cellular proliferation (Cell Titer Glo), HCT116 MTAP-/-. It is filed as cell-based, human. The following applies: 4 days, read-out: 4 Day Relative Growth Inhibition (MTAP −/−). In a few lines: as §1
The subject of test [1] is SAM in HCT116 MTAP-deleted cells. Kind of test: Cellular assay of target engagement (SAM), LC-MS/MS. It is filed as cell-based, human. The following applies: 72 h, read-out: Cell 72 h SAM Inhibition (MTAP −/−). In a few lines: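 HCT116 cells with MTAP deleted were treated with compound for 72 h at 37°C/5% CO2. After quenching lysis in cold 80% methanol with 1 M acetic acid, SAM was quantified by LC-MS/MS against a d3-SAM internal standard.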

Setting [2] is: Homo sapiens, HCT-116, 96 h, Table 5a.
Where [3] appears, read: Homo sapiens, HCT-116, Table 5a.
Where [4] appears, read: Table 6, select pairs of compounds.

T1 sequence (P31153 whole entry): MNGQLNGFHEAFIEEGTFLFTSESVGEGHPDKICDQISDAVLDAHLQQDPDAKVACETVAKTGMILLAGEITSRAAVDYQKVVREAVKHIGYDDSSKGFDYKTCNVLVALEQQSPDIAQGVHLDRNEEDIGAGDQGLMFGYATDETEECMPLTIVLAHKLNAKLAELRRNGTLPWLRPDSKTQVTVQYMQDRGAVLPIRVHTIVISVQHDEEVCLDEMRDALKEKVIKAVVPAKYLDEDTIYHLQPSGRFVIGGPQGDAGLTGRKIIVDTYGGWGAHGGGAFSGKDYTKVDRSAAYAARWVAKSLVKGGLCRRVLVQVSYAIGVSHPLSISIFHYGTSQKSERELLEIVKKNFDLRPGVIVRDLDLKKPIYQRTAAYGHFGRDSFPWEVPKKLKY

Take `CCOc1cnc2c(n1)N(c1ccc(OC(F)F)cc1)C(=O)N(c1ccc(OC)cc1)C2` [Example 186, 1-(4-(difluoromethoxy)phenyl)-7-ethoxy-3-(4-methoxyphenyl)-3,4-dihydropteridin-2(1H)-one]: the IC50 was 100 to 1000 nM with HCT116 MTAP+/+, below 100 nM at MAT2A homodimer, below 100 nM in the test on HCT116 MTAP-/- (setting [2]) and 100 to 1000 nM in test [1] (setting [3]).
As for `CCOc1cc2c(cn1)CN(c1ccc3nn(C)cc3c1)C(=O)N2c1ccc(OC(F)F)cc1` [Example 187, 1-(4-(difluoromethoxy)phenyl)-7-ethoxy-3-(2-methyl-2H-indazol-5-yl)-3,4-dihydropyrido[4,3-d]pyrimidin-2(1H)-one], the IC50 with HCT116 MTAP+/+ was above 1000 nM; at MAT2A homodimer it was 100 to 1000 nM; with HCT116 MTAP-/- (setting [2]), above 1000 nM; in test [1] (setting [3]) it was above 1000 nM.
Take `COc1ccc(N2Cc3cnc(NCC(F)F)nc3N(c3ccc(-c4nc[nH]n4)cc3)C2=O)cc1` [Example 188, 1-(4-(1H-1,2,4-triazol-3-yl)phenyl)-7-((2,2-difluoroethyl)amino)-3-(4-methoxyphenyl)-3,4-dihydropyrimido[4,5-d]pyrimidin-2(1H)-one]: the IC50 in the test on HCT116 MTAP+/+ was above 1000 nM; at MAT2A homodimer it was below 100 nM; in the test on HCT116 MTAP-/- (setting [2]), 100 to 1000 nM; in test [1] (setting [3]) it was 100 to 1000 nM.
Turning to `CCNc1ncc2c(n1)N(c1ccc(OC(F)F)cc1)C(=O)N(c1ccc3nn(C)cc3c1)C2` [Example 190, 1-(4-(difluoromethoxy)phenyl)-7-(ethylamino)-3-(2-methyl-2H-indazol-5-yl)-3,4-dihydropyrimido[4,5-d]pyrimidin-2(1H)-one], the IC50 in the test with HCT116 MTAP+/+ was above 1000 nM; on MAT2A homodimer, below 100 nM; with HCT116 MTAP-/- (setting [2]), 100 to 1000 nM; with HCT116 MTAP-/- (setting [4]), 100 to 1000 nM; in test [1] (setting [3]) it was 100 to 1000 nM; in test [1] (setting [4]), 100 to 1000 nM.
In the case of `COc1ccc(N2Cc3cnc(NCC(F)(F)F)nc3N(c3ccc(-c4nc[nH]n4)cc3)C2=O)cc1` [Example 193, 1-(4-(1H-1,2,4-triazol-3-yl)phenyl)-3-(4-methoxyphenyl)-7-((2,2,2-trifluoroethyl)amino)-3,4-dihydropyrimido[4,5-d]pyrimidin-2(1H)-one], the IC50 with HCT116 MTAP+/+ is above 1000 nM; on MAT2A homodimer it was below 100 nM; with HCT116 MTAP-/- (setting [2]), 100 to 1000 nM; in test [1] (setting [3]), below 100 nM.
As for `COc1ccc(N2Cc3cnc(NCC(F)(F)F)nc3N(c3ccc(-c4c[nH]cn4)cc3)C2=O)cc1` [Example 196, 1-(4-(1H-imidazol-4-yl)phenyl)-3-(4-methoxyphenyl)-7-((2,2,2-trifluoroethyl)amino)-3,4-dihydropyrimido[4,5-d]pyrimidin-2(1H)-one], the IC50 in the test with HCT116 MTAP+/+ was above 1000 nM; on MAT2A homodimer, below 100 nM; in the test on HCT116 MTAP-/- (setting [2]), 100 to 1000 nM; in test [1] (setting [3]), 100 to 1000 nM.
Take `COc1ccc(N2Cc3cnc(NCC(F)(F)F)nc3N(c3ccc(CO)cc3)C2=O)cc1` [Example 202, 1-(4-(hydroxymethyl)phenyl)-3-(4-methoxyphenyl)-7-((2,2,2-trifluoroethyl)amino)-3,4-dihydropyrimido[4,5-d]pyrimidin-2(1H)-one]: the IC50 is above 1000 nM with HCT116 MTAP+/+, 100 to 1000 nM at MAT2A homodimer, 100 to 1000 nM in the test on HCT116 MTAP-/- (setting [2]) and 100 to 1000 nM in test [1] (setting [3]).
On to `COc1ccc(N2Cc3cnc(NCC(F)(F)F)nc3N(c3ccc(CCO)cc3)C2=O)cc1` [Example 206, 1-(4-(2-hydroxyethyl)phenyl)-3-(4-methoxyphenyl)-7-((2,2,2-trifluoroethyl)amino)-3,4-dihydropyrimido[4,5-d]pyrimidin-2(1H)-one], for which the IC50 was above 1000 nM in the test on HCT116 MTAP+/+, below 100 nM on MAT2A homodimer, 100 to 1000 nM in the test on HCT116 MTAP-/- (setting [2]) and 100 to 1000 nM in test [1] (setting [3]).
Regarding `O=C1N(c2ccc3c(c2)OCCO3)Cc2cnc(NCC(F)(F)F)nc2N1c1ccc(-c2nc[nH]n2)cc1` [Example 214, 1-(4-(1H-1,2,4-triazol-3-yl)phenyl)-3-(2,3-dihydrobenzo[b][1,4]dioxin-6-yl)-7-((2,2,2-trifluoroethyl)amino)-3,4-dihydropyrimido[4,5-d]pyrimidin-2(1H)-one], the IC50 in the test on HCT116 MTAP+/+ was above 1000 nM; on MAT2A homodimer, below 100 nM; in the test with HCT116 MTAP-/- (setting [2]), 100 to 1000 nM; in test [1] (setting [3]) it was below 100 nM.
For the compound `[2H]C([2H])([2H])Oc1ccc(N2Cc3cnc(NCC(F)(F)F)nc3N(c3ccc(-c4nc[nH]n4)cc3)C2=O)cc1` [Example 215, 1-(4-(1H-1,2,4-triazol-3-yl)phenyl)-3-(4-(methoxy-d3)phenyl)-7-((2,2,2-trifluoroethyl)amino)-3,4-dihydropyrimido[4,5-d]pyrimidin-2(1H)-one], the IC50 is above 1000 nM in the test with HCT116 MTAP+/+, below 100 nM on MAT2A homodimer, 100 to 1000 nM in the test on HCT116 MTAP-/- (setting [2]) and below 100 nM in test [1] (setting [3]).
For the compound `Cn1cc2cc(N3Cc4cnc(NCC(F)(F)F)nc4N(c4ccc(OC(F)F)cc4)C3=O)ccc2n1` [Example 216, 1-(4-(difluoromethoxy)phenyl)-3-(2-methyl-2H-indazol-5-yl)-7-((2,2,2-trifluoroethyl)amino)-3,4-dihydropyrimido[4,5-d]pyrimidin-2(1H)-one], the IC50 with HCT116 MTAP+/+ was above 1000 nM; at MAT2A homodimer, below 100 nM; in the test with HCT116 MTAP-/- (setting [2]), below 100 nM; in the test with HCT116 MTAP-/- (setting [4]), below 100 nM; in test [1] (setting [3]) it was below 100 nM; in test [1] (setting [4]), below 100 nM.
`Cc1nc2ccc(N3Cc4cnc(NCC(F)(F)F)nc4N(c4ccc(-c5nc[nH]n5)cc4)C3=O)cc2s1` [Example 217, 1-(4-(1H-1,2,4-triazol-3-yl)phenyl)-3-(2-methylbenzo[d]thiazol-6-yl)-7-((2,2,2-trifluoroethyl)amino)-3,4-dihydropyrimido[4,5-d]pyrimidin-2(1H)-one]: the IC50 in the test on HCT116 MTAP+/+ is above 1000 nM; on MAT2A homodimer it was below 100 nM; with HCT116 MTAP-/- (setting [2]) it was below 100 nM; in test [1] (setting [3]), below 100 nM.
For `Cn1cnc2ccc(N3Cc4cnc(NCC(F)(F)F)nc4N(c4ccc(-c5nc[nH]n5)cc4)C3=O)cc21` [Example 218, 1-(4-(1H-1,2,4-triazol-3-yl)phenyl)-3-(1-methyl-1H-benzo[d]imidazol-6-yl)-7-((2,2,2-trifluoroethyl)amino)-3,4-dihydropyrimido[4,5-d]pyrimidin-2(1H)-one], the IC50 was above 1000 nM in the test with HCT116 MTAP+/+, below 100 nM on MAT2A homodimer, 100 to 1000 nM with HCT116 MTAP-/- (setting [2]) and 100 to 1000 nM in test [1] (setting [3]).
Take `O=C1N(c2ccc3ncsc3c2)Cc2cnc(NCC(F)(F)F)nc2N1c1ccc(-c2nc[nH]n2)cc1` [Example 219, 1-(4-(1H-1,2,4-triazol-3-yl)phenyl)-3-(benzo[d]thiazol-6-yl)-7-((2,2,2-trifluoroethyl)amino)-3,4-dihydropyrimido[4,5-d]pyrimidin-2(1H)-one]: the IC50 is above 1000 nM with HCT116 MTAP+/+, below 100 nM at MAT2A homodimer, 100 to 1000 nM in the test with HCT116 MTAP-/- (setting [2]) and below 100 nM in test [1] (setting [3]).
As to `Cn1cc2cc(N3Cc4cnc(NCC(F)(F)F)nc4N(c4ccc(-c5nc[nH]n5)cc4)C3=O)ccc2n1` [Example 220, 1-(4-(1H-1,2,4-triazol-3-yl)phenyl)-3-(2-methyl-2H-indazol-5-yl)-7-((2,2,2-trifluoroethyl)amino)-3,4-dihydropyrimido[4,5-d]pyrimidin-2(1H)-one], the IC50 with HCT116 MTAP+/+ was above 1000 nM; on MAT2A homodimer, below 100 nM; in the test with HCT116 MTAP-/- (setting [2]) it was 100 to 1000 nM; in test [1] (setting [3]), 100 to 1000 nM.
Regarding `O=C1N(c2ccc3ncccc3c2)Cc2cnc(NCC(F)(F)F)nc2N1c1ccc(-c2nc[nH]n2)cc1` [Example 223, 1-(4-(1H-1,2,4-triazol-3-yl)phenyl)-3-(quinolin-6-yl)-7-((2,2,2-trifluoroethyl)amino)-3,4-dihydropyrimido[4,5-d]pyrimidin-2(1H)-one], the IC50 was above 1000 nM with HCT116 MTAP+/+, below 100 nM at MAT2A homodimer, 100 to 1000 nM in the test with HCT116 MTAP-/- (setting [2]) and below 100 nM in test [1] (setting [3]).
`COc1ccc(N2C(=O)N(c3ccnc(OC)c3)Cc3cnc(NCC(F)(F)F)nc32)cc1` [Example 228, 1-(4-methoxyphenyl)-3-(2-methoxypyridin-4-yl)-7-((2,2,2-trifluoroethyl)amino)-3,4-dihydropyrimido[4,5-d]pyrimidin-2(1H)-one]: the IC50 is above 1000 nM with HCT116 MTAP+/+, below 100 nM at MAT2A homodimer, 100 to 1000 nM in the test with HCT116 MTAP-/- (setting [2]) and 100 to 1000 nM in test [1] (setting [3]).
`COc1ccc(N2C(=O)N(c3cn[nH]c3)Cc3cnc(NCC(F)(F)F)nc32)cc1` [Example 231, 1-(4-methoxyphenyl)-3-(1H-pyrazol-4-yl)-7-((2,2,2-trifluoroethyl)amino)-3,4-dihydropyrimido[4,5-d]pyrimidin-2(1H)-one]: the IC50 in the test on HCT116 MTAP+/+ is above 1000 nM; on MAT2A homodimer, 100 to 1000 nM; in the test on HCT116 MTAP-/- (setting [2]), above 1000 nM; in test [1] (setting [3]), 100 to 1000 nM.
